Experimental data as given in US20220031680A1, “Donecopride As Neuroprotective Agent In the Treatment of Neurodegenerative Diseases” (priority 2018, published 2022).

Tested on: C57Bl6/J mice challenged with an intracerebroventricular injection of Aβ1-42 oligomers (AβO)
Assay: Y-maze test (spatial working memory) in mice icv injected with AβO
Format: in vivo, mouse
Conditions: day +4
Method: Briefly, 144 C57Bl6/J male mice (3 months of age) were received and housed (4 to 5 per cage) in quarantine during 7 days, or longer. Test items were dosed per os (through oral gavage) once daily at different concentrations from day −1 to day +17.
At day 0, mice received a single icv injection of vehicle or AβO.
At day +4 (i.e. four days after disease induction), spatial working memory was assessed using the Y-maze test.
The different experimental groups are defined as follow: • GROUP A (vehicle CTRL): po vehicle AND icv injection of vehicle (n=12) • GROUP B (APO CTRL): po vehicle AND icv injection of AβO (n=12) • GROUP C (positive CTRL): po Donepezil subchronic AND icv injection of AβO (n=12) • GROUP D (Donecopride CTRL): po Donecopride (9 mg/kg) AND icv injection of vehicle (n=12) • GROUP E (Flucopride CTRL): po Flucopride (9 mg/kg) AND icv injection of vehicle (n=12) • GROUP F (Donecopride Treated): po Donecopride (1 mg/kg) AND icv injection of AβO (n=12) • GROUP G (Donecopride Treated): po Donecopride (3 mg/kg) AND icv injection of AβO (n=12) • GROUP H (Donecopride Treated): po Donecopride (9 mg/kg) AND icv injection of AβO (n=12) • GROUP I (Fluocopride Treated): po Flucopride (1 mg/kg) AND icv injection of AβO (n=12) • GROUP J (Flucopride Treated): po Flucopride (3 mg/kg) AND icv injection of AβO (n=12) • GROUP K (Flucopride Treated): po Flucopride (9 mg/kg) AND icv injection of AβO (n=12) • GROUP L (positive CTRL): ip Donepezil acute on test days AND icv injection of AβO (n=12)
For per os dosing, Donecopride and Flucopride were formulated by solubilization in 0.9% NaCl. Compound dosing (total volume of 200 μL) started one day before induction of the disease (through icv injection of AβO) and was done for 19 consecutive days.
Single intra-cerebroventricular injection of 144 mice with vehicle or APO (max. 24 mice per day, all mice randomized): under anesthesia (ip injection of a mixture of ketamine/xylasine at a dose of 110 and 15 mg/kg, respectively) AβO (1 μL), or vehicle (1 μL) were injected into the right lateral ventricle. Injections were made using 10 μL Hamilton micro syringes fitted with a 26-gauge needle. The procedure was terminated by a subcutaneous injection of metacam (analgesia) at a dose of 5 mg/kg. Animals were then placed individually in their home-cage and the cage was placed in a heated cabinet until the animal has fully recovered. Animals were carefully monitored to control recovery after anesthesia.
Preparation of APO: Aβ1-42 was obtained from Bachem (ref H1368) (batch number: 1052301). The preparation of stable Aβ1-42 oligomers was performed as described in Garcia et al. (2010) J. Neurosci. 30:7516-7527. The oligomeric preparation (identified as Batch #2016-14) contained a mixture of stable trimers and tetramers of Aβ1-42, as well as monomeric forms of the peptide. All oligomer preparations used were previously characterized in terms of oligomer composition and in vitro neurotoxicity.
6 independent trials involving each 24 mice (i.e. 2 mice from each experimental group) for a total of 144 mice at day +4—Behavioral tests were performed 1 h after dosing.
Detailed protocol: Immediate spatial working memory performance was assessed by recording spontaneous alternation behavior in a Y-maze. The maze is made of opaque Plexiglas and each of the three arms is 40 cm long, 14 cm high, 10 cm wide and positioned at equal angles. The apparatus is placed in a homogeneously lit test room to obtain 12-15 lux in all arms as well as in the central zone. Mice are placed in the middle of one arm and allowed to explore the maze freely during 5 min session. The series of arm entries are video recorded (Smart v3.0 software, Bioseb) and an arm entry is considered complete when the hind paws of the mouse are completely placed in the arm. Alternation is defined as successive entries into the 3 arms on overlapping triplet sets. […]

[1] = 9 mg/kg/day po, icv vehicle (no AβO)

Structure (SMILES) | alternation behavior (Y-maze) (1 mg/kg/day po, icv AβO) [%] | alternation behavior (Y-maze) (3 mg/kg/day po, icv AβO) [%] | alternation behavior (Y-maze) (9 mg/kg/day po, icv AβO) [%] | alternation behavior (Y-maze) [1] [%] | alternation behavior (Y-maze) (ip acute on test day, icv AβO (Group L)) [%] | alternation behavior (Y-maze) (per os subchronic, icv AβO (Group C)) [%]
COc1cc(N)c(Cl)cc1C(=O)CCC1CCN(CC2CCCCC2)CC1 [Donecopride] | 56.6±3.7 | 65.5±4.4 | 64.3±5.1 | 59.3±4.0 |  | 
COc1cc2c(cc1OC)C(=O)C(CC1CCN(Cc3ccccc3)CC1)C2 (stereo not shown) [Donepezil, reference compound] |  |  |  |  | 60.8±1.9 | 66.1±1.8
COc1cc(N)c(F)cc1C(=O)CCC1CCN(CC2CCCCC2)CC1 [Flucopride] | 67.1±2.7 | 65.3±4.1 | 59.1±3.0 | 63.1±2.3 |  | 
